Among the data in US20230081426A1, “COMPOUNDS AND METHODS FOR KRAS MODULATION AND INDICATIONS THEREFOR” (Plexxikon Inc., priority 2020, published 2023) are IC50 values, retold here.

The target in test [1] is T1, G12V-mutant human KRAS (amino acid residues 1-188) (Homo sapiens, UniProt P01116, G12V).
T1 construct: G12V-mutant human KRAS (amino acid residues 1-188) with FLAG tag was purified from E. coli; made in house; host or cells: E. coli
Briefly: KRAS Binding Competition Assay (AlphaScreen; biotinylated KRpep-2d analogue), G12V. Particulars: geometric mean, read-out: KRAS GMean IC50 (uM) MUTATION: G12V. On the technique in general: Bead proximity is the source of the signal in Alpha formats.

For test [2], the target named is T2, G12D-mutant human KRAS (amino acid residues 1-188) (Homo sapiens, UniProt P01116, G12D).
T2 construct: G12D or G12C-mutant human KRAS (amino acid residues 1-188) with FLAG tag; made in house; host or cells: E. coli
Briefly: KRAS Binding Disruption Assay (AlphaScreen; biotinylated KRpep-2d analogue or RAF1-RBD), G12D. The note with it: KRAS G12D; geometric mean; read-out: KRAS GMean IC50 (uM) MUTATION: G12D. The method, boiled down: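 Mutant KRAS (5-20 nM) incubated 1 h at 25° C with test compound and 5-20 nM biotinylated KRpep-2d analogue or RAF1-RBD in 20 mM HEPES pH 7.5, 100 mM NaCl, 5 mM MgCl2, 0.01% Tween-20, 0.01% BSA.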

Structures are written as SMILES.

For `OCC1(COc2nc(N3C[C@H]4CC[C@@H](C3)N4)c3ccc(-c4cc(O)cc5ccccc45)c(F)c3n2)COC1` [P-0613, 4-(4-((1R,5S)-3,8-diazabicyclo[3.2.1]octan-3-yl)-8-fluoro-2-((3-(hydroxymethyl)oxetan-3-yl)methoxy)quinazolin-7-yl)naphthalen-2-ol], the IC50 was in the range of 10 to 100 µM in test [1] and 0.0001 to 10 µM in test [2].

Regarding `OCC1(COc2nc(N3C[C@H]4CC[C@@H](C3)N4)c3ccc(-c4cc(O)cc5ccccc45)c(F)c3n2)CC1` [P-0614, 4-(4-((1R,5S)-3,8-diazabicyclo[3.2.1]octan-3-yl)-8-fluoro-2-((l (hydroxymethyl)cyclopropyl)methoxy)quinazolin-7-yl)naphthalen-2-ol], the concentration for half-maximal inhibition (IC50) was in the range of 10 to 100 µM in test [1] and 0.0001 to 10 µM in test [2].

Consider `N#CCc1cccc2[nH]cc(-c3ccc4c(N5C[C@H]6CC[C@@H](C5)N6)nc(OCC56CCCN5CCC6)nc4c3F)c12` [P-0615, 2-(3-(4-((1R,5S)-3,8-diazabicyclo[3.2.1]octan-3-yl)-8-fluoro-2-((tetrahydro-1H-pyrrolizin-7a(5H)-yl)methoxy)quinazolin-7-yl)-1H-indol-4-yl)acetonitrile], for which the IC50 lay in the range of 10 to 100 µM in test [1] and 0.0001 to 10 µM in test [2].

Turning to `CNC(=O)CCOc1nc(N2C[C@H]3CC[C@@H](C2)N3)c2ccc(-c3cc(O)cc4ccccc34)c(F)c2n1` [P-0616, 3-((4-((1R,5S)-3,8-diazabicyclo[3.2.1]octan-3-yl)-8-fluoro-7-(3-hydroxynaphthalen-1-yl)quinazolin-2-yl)oxy)-N-methylpropanamide], the IC50 in test [1] was 10 to 100 µM; in test [2] it was 0.0001 to 10 µM.

In the case of `Oc1cc(-c2ccc3c(N4C[C@H]5CC[C@@H](C4)N5)nc(OCC4CCC4O)nc3c2F)c2ccccc2c1` (stereo partly drawn) [P-0617, 4-(4-((1R,5S)-3,8-diazabicyclo[3.2.1]octan-3-yl)-8-fluoro-2-((2-hydroxycyclobutyl)methoxy)quinazolin-7-yl)naphthalen-2-ol], the IC50 in test [1] fell in the range of 10 to 100 µM; in test [2], 0.0001 to 10 µM.

In the case of `CC(C)(CN)COc1nc(N2C[C@H]3CC[C@@H](C2)N3)c2ccc(-c3cc(O)cc4ccccc34)c(F)c2n1` [P-0618, 4-(2-(3-amino-2,2-dimethylpropoxy)-4-((1R,5S)-3,8-diazabicyclo[3.2.1]octan-3-yl)-8-fluoroquinazolin-7-yl)naphthalen-2-ol], the IC50 is 10 to 100 µM in test [1] and 0.0001 to 10 µM in test [2].

Take `CC(C)(COc1nc(N2C[C@H]3CC[C@@H](C2)N3)c2ccc(-c3cc(O)cc4ccccc34)c(F)c2n1)NC(N)=O` [P-0619, 1-(1-((4-((1R,5S)-3,8-diazabicyclo[3.2.1]octan-3-yl)-8-fluoro-7-(3-hydroxynaphthalen-1-yl)quinazolin-2-yl)oxy)-2-methylpropan-2-yl)urea]: the figures for the IC50 in test [1] and in test [2] were 10 to 100 µM and 0.0001 to 10 µM, respectively.

Regarding `CC(C)(COc1nc(N2C[C@H]3CC[C@@H](C2)N3)c2ccc(-c3cc(O)cc4ccccc34)c(F)c2n1)C(N)=O` [P-0620, 3-((4-((1R,5S)-3,8-diazabicyclo[3.2.1]octan-3-yl)-8-fluoro-7-(3-hydroxynaphthalen-1-yl)quinazolin-2-yl)oxy)-2,2-dimethylpropanamide], the IC50 in test [1] lay in the range of 10 to 100 µM; in test [2], 0.0001 to 10 µM.

With `CNC(=O)C(C)(C)COc1nc(N2C[C@H]3CC[C@@H](C2)N3)c2ccc(-c3cc(O)cc4ccccc34)c(F)c2n1` [P-0621, 3-((4-((1R,5S)-3,8-diazabicyclo[3.2.1]octan-3-yl)-8-fluoro-7-(3-hydroxynaphthalen-1-yl)quinazolin-2-yl)oxy)-N,2,2-trimethylpropanamide], the values for the IC50 in test [1] and in test [2] were 10 to 100 µM and 0.0001 to 10 µM, respectively.

As to `Oc1cc(-c2ccc3c(N4CC5CCC(C4)N5)nc(OCC4CCC(O)C4)nc3c2F)c2ccccc2c1` [P-0622, 4-(4-((1R,5S)-3,8-diazabicyclo[3.2.1]octan-3-yl)-8-fluoro-2-((3-hydroxycyclopentyl)methoxy)quinazo-lin-7-yl)naphthalen-2-ol], the results for the IC50 in test [1] and in test [2] were 10 to 100 µM and 0.0001 to 10 µM, respectively.

As to `CN1CCc2c(cccc2Oc2nc(N3C[C@H]4CC[C@@H](C3)N4)c3ccc(-c4cc(O)cc5ccccc45)c(F)c3n2)C1` [P-0623, 4-(4-((1R,5S)-3,8-diazabicyclo[3.2.1]octan-3-yl)-8-fluoro-2-((2-methyl-1,2,3,4-tetrahydroisoquinolin-5-yl)oxy)quinazolin-7-yl)naphthalen-2-ol], the concentration for half-maximal inhibition (IC50) is 10 to 100 µM in test [1] and 0.0001 to 10 µM in test [2].

As to `O=Cc1cccc2[nH]cc(-c3c(F)cc4c(N5C[C@H]6CC[C@@H](C5)N6)nc(OCC56CCCN5CCC6)nc4c3F)c12` [P-0624, 3-(4-((1R,5S)-3,8-diazabicyclo[3.2.1]octan-3-yl)-6,8-difluoro-2-((tetrahydro-1H-pyrrolizin-7a(5H)-yl)methoxy)quinazolin-7-yl)-1H-indole-4-carbaldehyde], the IC50 in test [1] fell in the range of 10 to 100 µM; in test [2] it was 0.0001 to 10 µM.

As to `Fc1c(-c2c[nH]c3cccc(C(F)F)c23)ccc2c(N3C[C@H]4CC[C@@H](C3)N4)nc(OCC34CCCN3CCC4)nc12` [P-0625, 4-((1R,5S)-3,8-diazabicyclo[3.2.1]octan-3-yl)-7-(4-(difluoromethyl)-1H-indol-3-yl)-8-fluoro-2-((tetrahydro-1H-pyrrolizin-7a(5H)-yl)methoxy)quinazoline], the IC50 in test [1] and in test [2] was 0.0001 to 10 µM each time.

For `Cc1[nH]c2ccccc2c1-c1ccc2c(N3C[C@H]4CC[C@@H](C3)N4)nc(OCC34CCCN3CCC4)nc2c1F` [P-0626, 4-((1R,5S)-3,8-diazabicyclo[3.2.1]octan-3-yl)-8-fluoro-7-(2-methyl-1H-indol-3-yl)-2-((tetrahydro-1H-pyrrolizin-7a(5H)-yl)methoxy)quinazoline], the 50% inhibitory concentration (IC50) lay in the range of 10 to 100 µM in test [1] and 0.0001 to 10 µM in test [2].

Turning to `CNC(=O)CN1[C@@H]2CC[C@H]1CN(c1nc(OCC34CCCN3CCC4)nc3c(F)c(-c4cc(O)cc5ccccc45)ccc13)C2` [P-0627, 2-((1R,5S)-3-(8-fluoro-7-(3-hydroxynaphthalen-1-yl)-2-((tetrahydro-1H-pyrrolizin-7a(5H)-yl)methoxy)quinazolin-4-yl)-3,8-diazabicyclo[3.2.1]octan-8-yl)-N-methylacetamide], the half-inhibitory concentration (IC50) in test [1] and in test [2] was 0.0001 to 10 µM in each case.

In the case of `OCCCN1[C@@H]2CC[C@H]1CN(c1nc(OCC34CCCN3CCC4)nc3c(F)c(-c4cc(O)cc5ccccc45)ccc13)C2` [P-0628, 4-(8-fluoro-4-((1R,5S)-8-(3-hydroxypropyl)-3,8-diazabicyclo[3.2.1]octan-3-yl)-2-((tetrahydro-1H-pyrrolizin-7a(5H)-yl)methoxy)quinazolin-7-yl)naphthalen-2-ol], the IC50 in test [1] and in test [2] was 0.0001 to 10 µM throughout.

Take `OCC1CN(c2nc(N3C[C@H]4CC[C@@H](C3)N4)c3ccc(-c4cc(O)cc5ccccc45)c(F)c3n2)CC1O` (stereo partly drawn) [P-0629, 1-(4-((1R,5S)-3,8-diazabicyclo[3.2.1]octan-3-yl)-8-fluoro-7-(3-hydroxynaphthalen-1-yl)quinazolin-2-yl)-4-(hydroxymethyl)pyrrolidin-3-ol]: the IC50 in test [1] lay within 10 to 100 µM; in test [2], 0.0001 to 10 µM.

In the case of `CN(C)C(C)(C)CNc1nc(N2C[C@H]3CC[C@@H](C2)N3)c2ccc(-c3cc(O)cc4ccccc34)c(F)c2n1` [P-0630, 4-(4-((1R,5S)-3,8-diazabicyclo[3.2.1]octan-3-yl)-2-((2-(dimethylamino)-2-methylpropyl)amino)-8-fluoroquinazolin-7-yl)naphthalen-2-ol], the IC50 in test [1] is 10 to 100 µM; in test [2], 0.0001 to 10 µM.

Turning to `Oc1cc(-c2ccc3c(N4C[C@H]5CC[C@@H](C4)N5)nc(NCC45CCCN4CCC5)nc3c2F)c2ccccc2c1` [P-0631, 4-(4-((1R,5S)-3,8-diazabicyclo[3.2.1]octan-3-yl)-8-fluoro-2-(((tetrahydro-1H-pyrrolizin-7a(5H)-yl)methyl)amino)quinazolin-7-yl)naphthalen-2-ol], the half-maximal inhibitory concentration (IC50) in test [1] fell in the range of 10 to 100 µM; in test [2], 0.0001 to 10 µM.

Regarding `Oc1cc(-c2ccc3c(N4C[C@H]5CC[C@@H](C4)N5)nc(N4CC(N5CC(O)C5)C4)nc3c2F)c2ccccc2c1` [P-0632, 1′-(4-((1R,5S)-3,8-diazabicyclo[3.2.1]octan-3-yl)-8-fluoro-7-(3-hydroxynaphthalen-1-yl)quinazolin-2-yl)-[1,3′-biazetidin]-3-ol], the IC50 in test [1] and in test [2] was 0.0001 to 10 µM throughout.

Regarding `Oc1cc(-c2ccc3c(N4C[C@H]5CC[C@@H](C4)N5)nc(N4CC(O)C4)nc3c2F)c2ccccc2c1` [P-0633, 1-(4-((1R,5S)-3,8-diazabicyclo[3.2.1]octan-3-yl)-8-fluoro-7-(3-hydroxynaphthalen-1-yl)quinazolin-2-yl)azetidin-3-ol], the IC50 fell in the range of 100 to 1000 µM in test [1] and 0.0001 to 10 µM in test [2].

Turning to `OCC1CCN(c2nc(N3C[C@H]4CC[C@@H](C3)N4)c3ccc(-c4cc(O)cc5ccccc45)c(F)c3n2)C1` (stereo partly drawn) [P-0634, 4-(4-((1R,5S)-3,8-diazabicyclo[3.2.1]octan-3-yl)-8-fluoro-2-(3-(hydroxymethyl)pyrrolidin-1-yl)quinazolin-7-yl)naphthalen-2-ol], the results for the IC50 in test [1] and in test [2] were 100 to 1000 µM and 0.0001 to 10 µM, respectively.

In the case of `CN(C)C1(C)CN(c2nc(N3C[C@H]4CC[C@@H](C3)N4)c3ccc(-c4cc(O)cc5ccccc45)c(F)c3n2)C1` [P-0635, 4-(4-((1R,5S)-3,8-diazabicyclo[3.2.1]octan-3-yl)-2-(3-(dimethylamino)-3-methylazetidin-1-yl)-8-fluoroquinazolin-7-yl)naphthalen-2-ol], the IC50 in test [1] was in the range of 10 to 100 µM; in test [2] it was 0.0001 to 10 µM.

What is called IC50 is the concentration that inhibits the measured activity by half.
